Values of other authors, collected in patent US20100234388A1, “SUBSTITUTED PDE5 INHIBITORS” (AUSPEX PHARMACEUTICALS, INC., priority 2006, published 2010).

Key:
[1] = test system: PDE5 versus PDE6; conditions: compared with sildenafil and vardenafil
[2] = human, in vivo
[3] = human, in vivo; remark: listed apart in the source

In the case of `CN1CC(=O)N2[C@H](c3ccc4c(c3)OCO4)c3[nH]c4ccccc4c3C[C@@H]2C1=O` [tadalafil, Tadalafil], the “selectivity for PDE5 versus PDE6” value [1] is given as “much more selective”, the exercise tolerance [2] is given as “improve exercise tolerance” and the “patients with side effects of chromatopsia, increased sensitivity to light, and blurred vision” value [3] is given as “less than 0.1%”.
